Measured values as given in US20250194649A1, “FATTY ACID AMIDES AND THEIR USE AS FLAVOR MODIFIERS” (Firmenich SA, priority 2022, published 2025).

How the values were obtained:
Assay type in all cases: in vivo
[1] = Sensory panel (8 experts): sample added to reference water solution containing 4% sucrose; settings: dosage 0.2 ppm; scale −5 (strong masking) to 5 (strong enhancing), 0 = reference 4% sucrose in water
Text: (§1) A panel consisting of 8 experts evaluating the samples adding in reference at 0.2 or 5 ppm for their sensory properties (sweet, licorice, sweet lingering) on a scale of −5 to 5 (−5 denoted strong masking effect and 5 denoted strong enhancing effect, 0 being the intensity of a reference water solution containing 4% sucrose, or 0.02% SG95. The results are shown in Table 2.

[2] = Sensory panel (8 experts): sample added to reference water solution containing 0.02% SG95 (stevia extract); settings: dosage 0.2 ppm; scale −5 to 5, 0 = reference 0.02% SG95 in water
Text: as §1

[3] = Sensory panel (8 experts): sweet intensity of sub-threshold sweetener solutions with and without R1 at 50 ppm; settings: for Sweet intensity of the compound solution: without R1
Text: A panel consisting of 8 experts evaluating R1 adding in various sweeteners at 50 ppm for their sweet properties (0 denoted no sweet taste, 10 denoted too strong sweet taste). The sweetener dosage were designed under their sweetness threshold in water.

[4] = compound 10 ppm in water, scale 0 (no sweet taste) to 10 (too strong sweet taste)
[5] = compound 10 ppm plus R1 (Sichuan pepper oil) 50 ppm, scale 0 to 10
[6] = compound 2.5 ppm in water, scale 0 to 10
[7] = compound 2.5 ppm plus R1 (Sichuan pepper oil) 50 ppm, scale 0 to 10

Compound: C/C=C/C=C/C=C\CC/C=C/C(=O)NCC(C)(C)O [Compound S1, Hydroxy-α-sanshool]
- ΔSweet intensity to sucrose solution [1]: +0.3
- ΔLicorice intensity to stevia extract solution [2]: +0.3
- ΔLingering intensity to stevia extract solution [2]: −0.8
- ΔSweet intensity tostevia extract solution [2]: +0.1

Compound: C/C=C/C=C/C=C/CC/C=C/C(=O)NCC(C)(C)O [Compound S3, Hydroxy-β-sanshool]
- ΔSweet intensity to sucrose solution [1]: +0.5
- ΔLicorice intensity to stevia extract solution [2]: 0
- ΔLingering intensity to stevia extract solution [2]: −0.4
- ΔSweet intensity tostevia extract solution [2]: +0.2

Compound: O=C1C[C@@H](c2ccc(O)c(O)c2)Oc2cc(O)cc(O)c21 [Eriodictyol, eriodictyol]
- Sweet intensity of the compound solution [3, 4]: 0.03
- Sweet intensity of the compound and R1 blend solution [3, 5]: 1.7

Compound: COc1cc([C@@H]2CC(=O)c3c(O)cc(O)cc3O2)ccc1O [Homoeriodictyol, homoeriodictyol]
- Sweet intensity of the compound solution [3, 4]: 0
- Sweet intensity of the compound and R1 blend solution [3, 5]: 1.7

Compound: C[C@H](CC[C@@H](O[C@@H]1O[C@H](CO[C@@H]2O[C@H](CO)[C@@H](O)[C@H](O)[C@H]2O)[C@@H](O)[C@H](O)[C@H]1O[C@@H]1O[C@H](CO)[C@@H](O)[C@H](O)[C@H]1O)C(C)(C)O)[C@H]1CC[C@@]2(C)[C@@H]3CC=C4[C@@H](CC[C@H](O[C@@H]5O[C@H](CO[C@@H]6O[C@H](CO)[C@@H](O)[C@H](O)[C@H]6O)[C@@H](O)[C@H](O)[C@H]5O)C4(C)C)[C@]3(C)[C@H](O)C[C@]12C [Mogroside V, mogroside V]
- Sweet intensity of the compound solution [3, 6]: 0.08
- Sweet intensity of the compound and R1 blend solution [3, 7]: 1.6

Compound: COc1ccc(CCC(=O)c2c(O)cc(O[C@@H]3O[C@H](CO)[C@@H](O)[C@H](O)[C@H]3O[C@@H]3O[C@@H](C)[C@H](O)[C@@H](O)[C@H]3O)cc2O)cc1O [NHDC, neohesperidin dihydrochalcone]
- Sweet intensity of the compound solution ([3]; compound 0.5 ppm in water, scale 0 to 10): 0.06
- Sweet intensity of the compound and R1 blend solution ([3]; compound 0.5 ppm plus R1 (Sichuan pepper oil) 50 ppm, scale 0 to 10): 1.1

Compound: O=C1C[C@@H](c2ccc(O)cc2)Oc2cc(O)cc(O)c21 [Naringenin, naringenin]
- Sweet intensity of the compound solution [3, 4]: 0.13
- Sweet intensity of the compound and R1 blend solution [3, 5]: 1.3

Compound: C=C1C[C@@]23CC[C@H]4[C@@](C)(CCC[C@@]4(C)C(=O)O[C@@H]4O[C@H](CO)[C@@H](O)[C@H](O)[C@H]4O[C@@H]4O[C@H](CO)[C@@H](O)[C@H](O)[C@H]4O)[C@@H]2CC[C@]1(O[C@@H]1O[C@H](CO)[C@@H](O)[C@H](O)[C@H]1O[C@@H]1O[C@H](CO)[C@@H](O)[C@H](O)[C@H]1O)C3 [Reb E, Rebaudioside E]
- Sweet intensity of the compound solution [3, 6]: 0.06
- Sweet intensity of the compound and R1 blend solution [3, 7]: 1.5

Compound: C=C1C[C@@]23CC[C@H]4[C@@](C)(CCC[C@@]4(C)C(=O)O[C@@H]4O[C@H](CO)[C@@H](O)[C@H](O)[C@H]4O)[C@@H]2CC[C@]1(O[C@@H]1O[C@H](CO)[C@@H](O)[C@H](O[C@@H]2O[C@H](CO)[C@@H](O)[C@H](O)[C@H]2O)[C@H]1O[C@@H]1O[C@H](CO)[C@@H](O)[C@H](O)[C@H]1O)C3 [RebA, Rebaudioside A]
- Sweet intensity of the compound solution [3, 6]: 0.19
- Sweet intensity of the compound and R1 blend solution [3, 7]: 1.9

Compound: C=C1C[C@@]23CC[C@H]4[C@@](C)(CCC[C@@]4(C)C(=O)O[C@@H]4O[C@H](CO)[C@@H](O)[C@H](O)[C@H]4O)[C@@H]2CC[C@]1(O[C@@H]1O[C@H](CO)[C@@H](O)[C@H](O)[C@H]1O)C3 [Rubusoside, rubusoside]
- Sweet intensity of the compound solution ([3]; compound 5 ppm in water, scale 0 to 10): 0
- Sweet intensity of the compound and R1 blend solution ([3]; compound 5 ppm plus R1 (Sichuan pepper oil) 50 ppm, scale 0 to 10): 1.6

Compound: O=C(CCc1ccc(O)cc1)c1c(O)cc(O[C@@H]2O[C@H](CO)[C@@H](O)[C@H](O)[C@H]2O)cc1O [Trilobatin, trilobatin]
- Sweet intensity of the compound solution [3, 4]: 0
- Sweet intensity of the compound and R1 blend solution [3, 5]: 1.5

Compound: COc1ccc(CCC(=O)c2c(O)cc(O[C@@H]3O[C@H](CO)[C@@H](O)[C@H](O)[C@H]3O)cc2O)cc1O [hesperetin dihydrochalcone 4′-O-glucoside]
- Sweet intensity of the compound solution [3, 6]: 0.04
- Sweet intensity of the compound and R1 blend solution [3, 7]: 1.9

Compound: hesperidin dihydrochalcone
- Sweet intensity of the compound solution [3, 4]: 0.09
- Sweet intensity of the compound and R1 blend solution [3, 5]: 1.3

Compound: hydroxy-γ-sanshool [Compound S2]
- ΔSweet intensity to sucrose solution [1]: +0.7
- ΔLicorice intensity to stevia extract solution [2]: −0.5
- ΔLingering intensity to stevia extract solution [2]: −0.8
- ΔSweet intensity tostevia extract solution [2]: +0.3

Compound: malonyl rebaudioside A [Malonyl Reb A]
- Sweet intensity of the compound solution [3, 6]: 0
- Sweet intensity of the compound and R1 blend solution [3, 7]: 1.3

Compound: malonyl rebaudioside E [Malonyl Reb E]
- Sweet intensity of the compound solution [3, 6]: 0.13
- Sweet intensity of the compound and R1 blend solution [3, 7]: 1.5

Compound: α-mogroside IV
- Sweet intensity of the compound solution [3, 6]: 0.13
- Sweet intensity of the compound and R1 blend solution [3, 7]: 1.8
